Results from US12195482B1 (Arcus Biosciences, Inc., priority 2022, dated 2025).

What was measured:
recombinant human MER = molecular target: T1, recombinant human MER (Homo sapiens, UniProt Q12866); assay: Biochemical potency, HTRF KinEASE-TK kinase assay; conditions: 1 nM MER, 700 μM ATP
T1 construct: purchased Invitrogen
T1 sequence (Q12866 21-999): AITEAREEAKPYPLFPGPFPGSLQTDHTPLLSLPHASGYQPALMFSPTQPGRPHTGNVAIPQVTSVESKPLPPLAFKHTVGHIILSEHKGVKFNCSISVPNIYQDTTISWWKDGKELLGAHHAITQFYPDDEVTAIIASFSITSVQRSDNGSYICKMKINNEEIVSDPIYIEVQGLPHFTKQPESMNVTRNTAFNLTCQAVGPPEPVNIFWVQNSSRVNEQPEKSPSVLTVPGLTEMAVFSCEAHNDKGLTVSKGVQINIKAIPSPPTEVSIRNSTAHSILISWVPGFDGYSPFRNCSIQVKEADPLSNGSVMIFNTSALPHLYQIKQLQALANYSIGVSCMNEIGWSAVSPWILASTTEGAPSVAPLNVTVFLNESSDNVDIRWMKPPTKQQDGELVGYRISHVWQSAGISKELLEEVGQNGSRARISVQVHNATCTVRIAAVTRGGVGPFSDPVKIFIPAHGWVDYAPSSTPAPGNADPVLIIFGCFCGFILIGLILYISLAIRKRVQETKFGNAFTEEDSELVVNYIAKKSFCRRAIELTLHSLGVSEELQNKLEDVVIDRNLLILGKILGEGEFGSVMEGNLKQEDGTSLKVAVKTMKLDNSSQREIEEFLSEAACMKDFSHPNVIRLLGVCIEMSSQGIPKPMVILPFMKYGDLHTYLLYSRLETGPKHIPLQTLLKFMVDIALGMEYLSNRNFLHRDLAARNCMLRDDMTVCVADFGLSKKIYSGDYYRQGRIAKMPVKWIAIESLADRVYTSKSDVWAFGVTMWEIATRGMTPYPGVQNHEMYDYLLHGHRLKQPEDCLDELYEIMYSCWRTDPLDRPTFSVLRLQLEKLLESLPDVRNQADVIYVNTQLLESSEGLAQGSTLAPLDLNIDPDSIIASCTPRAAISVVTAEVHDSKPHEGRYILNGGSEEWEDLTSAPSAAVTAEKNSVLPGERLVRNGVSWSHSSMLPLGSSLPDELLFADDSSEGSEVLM
In short: (§1)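 Compounds preincubated 1 h at RT with enzyme in 50 mM HEPES pH 7.4, 10 mM MgCl2, 0.01% BSA, 1 mM DTT; reactions then ran 2 h at RT with 5 nM AXL or 1 nM TYRO3/MER, 800 nM TK substrate-biotin, 700 μM ATP, 1% DMSO. HTRF 665/620 ratio read; percent activity calculated.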

recombinant human TYRO3 = molecular target: T2, recombinant human TYRO3 (Homo sapiens, UniProt Q06418); assay: Biochemical potency, HTRF KinEASE-TK kinase assay; conditions: 1 nM TYRO3, 700 μM ATP
T2 construct: purchased Invitrogen
T2 sequence (Q06418 41-890): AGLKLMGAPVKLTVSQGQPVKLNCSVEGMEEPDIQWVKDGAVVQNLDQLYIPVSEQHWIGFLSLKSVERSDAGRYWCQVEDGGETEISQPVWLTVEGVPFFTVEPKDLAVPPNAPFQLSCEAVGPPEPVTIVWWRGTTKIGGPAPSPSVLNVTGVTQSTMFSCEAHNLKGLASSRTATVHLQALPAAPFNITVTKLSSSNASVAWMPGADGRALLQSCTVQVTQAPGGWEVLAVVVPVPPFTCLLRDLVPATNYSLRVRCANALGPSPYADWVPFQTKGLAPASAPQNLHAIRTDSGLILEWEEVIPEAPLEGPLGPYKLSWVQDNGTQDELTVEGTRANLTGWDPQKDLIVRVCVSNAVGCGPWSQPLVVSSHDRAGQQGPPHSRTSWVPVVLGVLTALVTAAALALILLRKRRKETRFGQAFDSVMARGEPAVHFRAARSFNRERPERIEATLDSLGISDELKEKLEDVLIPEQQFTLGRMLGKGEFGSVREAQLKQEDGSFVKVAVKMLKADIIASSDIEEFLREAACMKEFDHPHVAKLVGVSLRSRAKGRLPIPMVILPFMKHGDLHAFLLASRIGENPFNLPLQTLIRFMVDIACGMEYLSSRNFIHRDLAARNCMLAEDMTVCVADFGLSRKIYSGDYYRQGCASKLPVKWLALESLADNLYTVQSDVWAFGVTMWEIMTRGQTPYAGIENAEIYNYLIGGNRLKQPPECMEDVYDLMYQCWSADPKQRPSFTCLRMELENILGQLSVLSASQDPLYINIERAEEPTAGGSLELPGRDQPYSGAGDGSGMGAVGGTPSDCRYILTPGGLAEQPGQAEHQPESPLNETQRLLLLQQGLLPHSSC
In short: as §1

Row | IC50 (recombinant human MER) [nM] | IC50 (recombinant human TYRO3) [nM] | Compound
1 | 100 to 1000 | < 100 | CC(C)(C#N)c1cccnc1-c1ccc(-c2c[nH]c3ncc(-c4ccc5c(c4)CC[C@@H](N4C6COCC4C6)CC5)cc23)cc1 [Example 21, 2-Methyl-2-[2-[4-[5-[(7S)-7-(3-oxa-6-azabicyclo[3.1.1]heptan-6-yl)-6,7,8,9-tetrahydro-5H-benzo[7]annulen-3-yl]-1H-pyrrolo[2,3-b]pyridin-3-yl]phenyl]pyridin-3-yl]propanenitrile]
2 | 100 to 1000 | 100 to 1000 | Cc1cc(-c2n[nH]c3ncc(-c4ccc5c(c4)CC[C@@H](N4C6COCC4C6)CC5)cc23)ccc1-c1ccccn1 [Example 159, 6-[(7S)-2-{3-[3-Methyl-4-(pyridin-2-yl)phenyl]-2H-pyrazolo[3,4-b]pyridin-5-yl}-6,7,8,9-tetrahydro-5H-benzo[7]annulen-7-yl]-3-oxa-6-azabicyclo[3.1.1]heptane]
3 | 100 to 1000 | 100 to 1000 | CC(C)(O)c1ccccc1-c1ccc(-c2c[nH]c3ncc(-c4ccc5c(c4)CC[C@@H](N4C6COCC4C6)CC5)cc23)cn1 [Example 114, 2-[2-(5-{5-[(7S)-7-{3-Oxa-6-azabicyclo[3.1.1]heptan-6-yl}-6,7,8,9-tetrahydro-5H-benzo[7]annulen-2-yl]-1H-pyrrolo[2,3-b]pyridin-3-yl}pyridin-2-yl)phenyl]propan-2-ol]
4 | 100 to 1000 | 100 to 1000 | O=C(c1cccnc1-c1ccc(-c2c[nH]c3ncc(-c4ccc5c(c4)CC[C@@H](N4C6COCC4C6)CC5)cc23)cc1)N1CCCC1 [Example 171, 6-[(7S)-2-(3-{4-[3-(Pyrrolidine-1-carbonyl)pyridin-2-yl]phenyl}-1H-pyrrolo[2,3-b]pyridin-5-yl)-6,7,8,9-tetrahydro-5H-benzo[7]annulen-7-yl]-3-oxa-6-azabicyclo[3.1.1]heptane]
5 | > 1000 | 100 to 1000 | CC(C)(O)c1cccnc1-c1ccc(-c2n[nH]c3ncc(-c4ccc5c(c4)CC[C@@H](N4C6COCC4C6)CC5)cc23)nc1 [Example 100, 2-(6′-{5-[(7S)-7-{3-Oxa-6-azabicyclo[3.1.1]heptan-6-yl}-6,7,8,9-tetrahydro-5H-benzo[7]annulen-2-yl]-1H-pyrazolo[3,4-b]pyridin-3-yl}-[2,3′-bipyridin]-3-yl)propan-2-ol]
6 | 100 to 1000 | 100 to 1000 | Cc1cc(F)cnc1-c1ccc(-c2c[nH]c3ncc(-c4ccc5c(c4)CC[C@@H](N4C6COCC4C6)CC5)cc23)cc1 [Example 29, 6-[(7S)-3-[3-[4-(5-Fluoro-3-methylpyridin-2-yl)phenyl]-1H-pyrrolo[2,3-b]pyridin-5-yl]-6,7,8,9-tetrahydro-5H-benzo[7]annulen-7-yl]-3-oxa-6-azabicyclo[3.1.1]heptane]
7 | 100 to 1000 | < 100 | Cc1nc(-c2ccc(-c3n[nH]c4ncc(-c5ccc6c(c5)CC[C@@H](N5C7COCC5C7)CC6)cc34)cc2)n(C)n1 [Example 23, 6-[(7S)-2-{3-[4-(1,3-Dimethyl-1H-1,2,4-triazol-5-yl)phenyl]-1H-pyrazolo[3,4-b]pyridin-5-yl}-6,7,8,9-tetrahydro-5H-benzo[7]annulen-7-yl]-3-oxa-6-azabicyclo[3.1.1]heptane]
8 | < 100 | < 100 | Cc1cccnc1-c1ccc(-c2n[nH]c3ncc(-c4ccc5c(c4)CC[C@@H](N[C@H]4CCCOC4)CC5)cc23)cc1 [Example 129, (3S)—N-[(7S)-2-{3-[4-(3-Methylpyridin-2-yl)phenyl]-1H-pyrazolo[3,4-b]pyridin-5-yl}-6,7,8,9-tetrahydro-5H-benzo[7]annulen-7-yl]oxan-3-amine]
9 | < 100 | < 100 | C[C@@H]1CCCN1[C@@]1(C)CCc2ccc(-c3cnc4[nH]nc(-c5ccc(-c6ncnn6C)cc5)c4c3)cc2CC1 [Example 112, 1-Methyl-5-(4-{5-[(7S)-7-methyl-7-[(2R)-2-methylpyrrolidin-1-yl]-6,7,8,9-tetrahydro-5H-benzo[7]annulen-2-yl]-1H-pyrazolo[3,4-b]pyridin-3-yl}phenyl)-1H-1,2,4-triazole]
10 | < 100 | < 100 | Cc1cnc(-c2ccc(-c3n[nH]c4ncc(-c5ccc6c(c5)CC[C@@H](N5C7COCC5C7)CC6)cc34)cc2)c(C)c1 [Example 119, 6-[(7S)-2-{3-[4-(3,5-Dimethylpyridin-2-yl)phenyl]-1H-pyrazolo[3,4-b]pyridin-5-yl}-6,7,8,9-tetrahydro-5H-benzo[7]annulen-7-yl]-3-oxa-6-azabicyclo[3.1.1]heptane]
11 | < 100 | < 100 | Cc1cccnc1-c1ccc(-c2n[nH]c3ncc(-c4ccc5c(c4)CC[C@@](C)(N4CCC[C@H]4C)CC5)cc23)nc1 [Example 105, 3-Methyl-6′-{5-[(7S)-7-methyl-7-[(2R)-2-methylpyrrolidin-1-yl]-6,7,8,9-tetrahydro-5H-benzo[7]annulen-2-yl]-1H-pyrazolo[3,4-b]pyridin-3-yl}-2,3′-bipyridine]
12 | 100 to 1000 | 100 to 1000 | Cc1cccnc1-c1ccc(-c2n[nH]c3ncc(-c4ccc5c(c4)CC[C@@H](N4C6COCC4C6)CC5)cc23)nc1 [Example 26, 3-Methyl-6′-{5-[(7S)-7-{3-oxa-6-azabicyclo[3.1.1]heptan-6-yl}-6,7,8,9-tetrahydro-5H-benzo[7]annulen-2-yl]-1H-pyrazolo[3,4-b]pyridin-3-yl}-2,3′-bipyridine]
13 | < 100 | < 100 | Cc1cccnc1-c1ccc(-c2c[nH]c3ncc(-c4ccc5c(c4)CC[C@@](C)(N4CCC[C@H]4C)CC5)cc23)cc1 [Example 172, 3-Methyl-2-(4-{5-[(7S)-7-methyl-7-[(2R)-2-methylpyrrolidin-1-yl]-6,7,8,9-tetrahydro-5H-benzo[7]annulen-2-yl]-1H-pyrrolo[2,3-b]pyridin-3-yl}phenyl)pyridine]
14 | 100 to 1000 | < 100 | CCc1cccnc1-c1ccc(-c2n[nH]c3ncc(-c4ccc5c(c4)CC[C@@H](N4C6COCC4C6)CC5)cc23)cc1 [Example 182, 6-[(7S)-2-{3-[4-(3-Ethylpyridin-2-yl)phenyl]-1H-pyrazolo[3,4-b]pyridin-5-yl}-6,7,8,9-tetrahydro-5H-benzo[7]annulen-7-yl]-3-oxa-6-azabicyclo[3.1.1]heptane]
15 | > 1000 | > 1000 | c1cncc(-c2ccc(-c3c[nH]c4ncc(-c5ccc6c(c5)CC[C@@H](N5C7COCC5C7)CC6)cc34)cc2)c1 [Example 158, 6-[(7S)-2-{3-[4-(Pyridin-3-yl)phenyl]-1H-pyrrolo[2,3-b]pyridin-5-yl}-6,7,8,9-tetrahydro-5H-benzo[7]annulen-7-yl]-3-oxa-6-azabicyclo[3.1.1]heptane]
16 | < 100 | < 100 | Cc1ccnnc1-c1ccc(-c2n[nH]c3ncc(-c4ccc5c(c4)CC[C@@H](N4C6COCC4C6)CC5)cc23)cc1 [Example 176, 6-[(7S)-2-{3-[4-(4-Methylpyridazin-3-yl)phenyl]-1H-pyrazolo[3,4-b]pyridin-5-yl}-6,7,8,9-tetrahydro-5H-benzo[7]annulen-7-yl]-3-oxa-6-azabicyclo[3.1.1]heptane]
